Experimental data reported in patent publication US20210048439A1, “CAGED AMINO ACIDS FOR CONTROLLED METABOLIC INCORPORATION AND METHODS OF USE” (University of Washington, priority 2018, published 2021).

How the values were obtained:
HeLa cells [1] = experiment: Metabolic labeling of Met-depleted HeLa cells; Aha incorporation quantified by protein fluorescence (FAM-BCN, SDS-PAGE); format: cell-based
Procedure: Subsequent irradiation with UV light (λ=365 nm, 10 mW cm^−2, 5 min) yielded photoliberated Aha for metabolic incorporation. Two hours after light exposure, cells were lysed and their proteins were treated with a bicyclononyne-modified fluorescein (FAM-BCN, 100 nM, FIG. 2E) to introduce a fluorescent label by SPAAC. Protein fluorescence was then used to quantify the extent of Aha incorporation following protein separation by sodium dodecyl sulfate polyacrylamide gel electrophoresis (SDS-PAGE).
To control the extent of ncAA incorporation into newly synthesized proteins, NPPOC-Aha concentration was varied (0-250 μM) and the intensity of light irradiation (0-10 mW cm^−2) employed during photo-uncaging. […] To determine the potential effects of UV irradiation on metabolic incorporation, labeled protein fluorescence was compared for samples treated with Aha (50 μM)+/−light (10 mW cm^−2, 5 min) (FIG. 3D).
For in vitro work, borosilicate well plates (Mattek, P35G-1.5-14-C) were pretreated with high glucose Dulbecco's Modified Eagle Media (DMEM) supplemented with fetal bovine serum (FBS, 10%) and penicillin-streptomycin (PS, 1%). Plates were incubated at 37° C. for 10 minutes. HeLa cells were cultured on tissue culture polystyrene before seeding on borosilicate glass. After cells reached the desired confluency (50-60% for imaging; 80-90% for lysate analysis), cells were subjected to the following experiments.
Cells were rinsed with warm 1× Dulbecco's phosphate buffered saline (DPBS) and starved of methionine (Met) by the addition of Met-depleted media (1 h, 37° C.). Met-depleted media was prepared by adding L-cystine-2HCl (0.2 mM), L-glutamine (4 mM), and sodium pyruvate (1 mM) to depleted media (Fisher, 21013024). Media was removed and cells were treated with media containing NPPOC-Aha at the desired concentration (0-250 μM). Control media consisted of Aha or Met in the place of NPPOC-Aha. Cells were then irradiated with light (365 nm, 1-10 mW/cm2, 5 min). The cultures were then incubated (2 h, 37° C.) to promote Aha incorporation. The cells were then washed with 1×DPBS (37° C.).
Samples were prepared for sodium dodecyl sulfate polyacrylamide gel electrophoresis (SDS-PAGE) by lysing cells in lysis buffer (10 mM PO4, pH 7.0, 0.5% sodium dodecyl sulfate). Proteins were collected and immediately placed on ice. Free thiols were capped by the addition of iodoacetamide (10 mM, 30 min, room temperature). Azide-containing proteins were labeled by treatment with FAM-BCN (10 μM, 5 hours, room temperature). Excess FAM-BCN was removed by precipitating proteins with 4× sample volume of cold acetone (−20° C.). Lysates were incubated in acetone (1 h, −20° C.) and then subjected to centrifugation (14,000×g, 10 min). Proteins were redissolved in lysis buffer with gentle heating (40° C., 10 min), precipitated once more, and washed with 4× sample volume acetone before drying (20 min). Proteins were then dissolved in SDS-PAGE sample buffer (50 mM Tris-HC, 2% SDS, 10% glycerol, 12.5% β-mercaptoethanol, 0.025% bromophenol blue). Proteins were electrophoretically separated by a 12% polyacrylamide gel by applying a potential of 105 V. After electrophoresis, gels were scanned on a Typhoon FLA9000 fluorescent gel scanner before being stained with coomassie dye.

[2] = NPPOC-Aha photo-uncaging (photolysis) kinetics by HPLC; format: physicochemical
Excerpt: For this system to be effective, the kinetics of NPPOC uncaging should be rapid, such that the liberation of free Aha is not rate limiting compared with the biological processes under study. To determine its photolysis kinetics, NPPOC-Aha (dissolved in H2O:CH3CN, 50:50) was irradiated with collimated UV light (λ=365 nm, 10 mW cm^−2, 0-600 s exposure). Degradation products were quantitatively analyzed by HPLC, with elution fractions compositionally identified by mass spectrometry.
To determine the kinetics of NPPOC-Aha uncaging upon UV light exposure, NPPOC-Aha (3.4 mM dissolved in 50:50 dH2O:CH3CN) was placed in quartz NMR tubes and irradiated with collimated UV light (365 nm, 10 mW/cm^2) emanating from an OmniCure (series 1500; light intensity measured with Cole-Palmer series 9811 radiometer). Time points were collected every 120 s for a total of 600 s. The resulting degradation products were separated by reverse-phase HPLC, eluting with a CH3CN/dH2O gradient ramping from 5% to 100% CH3CN over 55 minutes. Remaining NPPOC-Aha was identified by HRMS (ESI+). Calculated for C14H18N5O6 [M+1H]+, 352.1257; observed 352.1259 (Δ=0.5 ppm). The HPLC peak corresponding to starting material was integrated and monitored over time.

HeLa cells [3] = experiment: Spatial labeling of phototagged cells in 3D tissue culture (PEG hydrogel, slitted photomask); format: cell-based; conditions: cells in oxime-based PEG hydrogels (7 wt %), irradiated through slitted photomask
Excerpt: Cells were encapsulated in oxime-based poly(ethylene glycol) hydrogels (7 wt %), treated with NPPOC-Aha and selectively irradiated through a slitted photomask. Cells were fixed and fluorescently labeled with FAM-BCN, phalloidin, and Hoechst. […] FAM fluorescence decreased exponentially away from exposed regions in a diffusion-predicted manner. Actin and DNA staining lack substantial patterning (FIG. 4).
HeLa cells were liberated from the tissue culture plate with trypsin, resuspended in FBS-supplemented DMEM, and pelleted by centrifugation. The cells were then gently resuspended in depleted media containing the photocaged Aha. Hydrogel precursors (10 k PEG functionalized with alkoxyamines or benzaldehyde) were combined (1:1 benzaldehyde:alkoxyamine stoichiometry) with cells prior to deposition on a glass-bottomed well plate (7 wt %, 10 mM aniline, 5 million cells/mL). After the gel had formed (30 min), it was inundated with depleted media containing […] (100 μM 30 min). Excess media was removed by aspiration and a subsection of the gel was irradiated with light (365 nm, 10 mW/cm2, 5 min) through a slitted photomask. Gels were washed with warm 1×DPBS (37° C., 15 min) before fixing with formaldehyde (4%, 1 hr, room temperature). Fixed cells were rinsed with 1×DPBS, and permeabilized with Triton™ X-100 (Sigma, 0.5%, 1 hr, room temperature). Cells were then washed (3×, 1 hr each) with 1×DPBS. […]

HeLa cells [4] = experiment: Fluorescent labeling of phototagged fixed cells (confocal imaging); format: cell-based; conditions: NPPOC-Aha 100 μM in the absence of light
Procedure: Building on the capability to fluorescently tag cellular lysates as well as isolate species of interest via laBONCAT, the technique's unique ability to label newly synthesized proteins in vitro with spatial control was investigated; this method could be applied to the isolation of proteins […] at user-specified times and locations from heterogeneous features in tissue culture, especially tissue slices. HeLa cells were treated with NPPOC-Aha (100 μM) and exposed to light (λ=365 nm, 10 mW cm^−2, 5 min). Two hours after exposure, cells were fixed, permeabilized, and treated with FAM-BCN (100 nM) to introduce a fluorescent label via SPAAC.
To fluorescently label Aha-tagged proteins for visualization, cells were rinsed with warm 1×DPBS (37° C.) before fixing with formaldehyde (4%, 10 min, room temperature). Fixed cells were rinsed with 1×DPBS, and permeabilized with Triton™ X-100 (Sigma, 0.5%, 2 min, room temperature). Cells were then washed (3×, 5 min each) with 1×DPBS. Azides were labeled by strain-promoted azide-alkyne cycloaddition (SPAAC) with FAM-BCN (100 nM, 30 min, room temperature) in the dark. Next, labeled cells were washed (3×, 5 min each) with 1×DPBS prior to imaging on a Leica SP8X laser scanning confocal microscope.

HeLa cells [5] = experiment: NPPOC-Aha in vitro stability in media with HeLa cells; format: in vitro ADME
Procedure: To assess its in vitro stability, NPPOC-Aha (100 μM) was incubated in media with HeLa cells for 0-4 hr prior to light exposure (10 mW cm^−2, 5 min) and subsequent metabolic labeling (2 hr). […] Such stability is useful in sampling biological systems, as it decouples media swaps from proteome labeling, allowing researchers to standardize their experimental conditions.
The stability of NPPOC-Aha was conducted using the above protocols for cell culture and SDS-PAGE with minor modifications. Instead of irradiating samples immediately following addition of NPPOC-Aha media, NPPOC-Aha was incubated in the presence of cells for the desired time (0-4 hours) prior to light exposure. Met (3.33 μM) was added to all media, yielding a 30:1 ratio of NPPOC-Aha:Met5.

[6] = control media with Aha or Met in place of NPPOC-Aha

For `[N-]=[N+]=NCC[C@H](N)C(=O)O` [Aha, L-Azidohomoalanine, reference compound], the “effect of UV irradiation on protein labeling” value (HeLa cells [1]; Aha 50 μM +/− light (10 mW cm^−2, 5 min)) was “no statistical difference”, the “protein fluorescence (extent of Aha incorporation)” value (shortened to “protein fluorescence”) (HeLa cells [1]; [6]) was “significant fluorescent enhancement” and the “free Aha concentration above which normalized incorporation plateaus” value (HeLa cells [1]; incorporation normalized for expected liberated Aha predicted by the photokinetics) was “about 50 μM”.

With `CC(COC(=O)N[C@@H](CCN=[N+]=[N-])C(=O)O)c1ccccc1[N+](=O)[O-]` (stereo partly drawn) [NPPOC-Aha, (2S)-4-azido-2-({[2-(2-nitrophenyl)propoxy]carbonyl}amino)butanoic Acid] the “first-order decay constant for NPPOC photolysis” value ([2]; H2O:CH3CN 50:50, collimated UV λ=365 nm, 10 mW cm^−2, 0-600 s) was 0.0075 ± 0.0002 s⁻¹, the NPPOC cleaved ([2]; after 5 minutes of irradiation, 365 nm, 10 mW cm-2) was 90% and the “cellular FAM signal pattern (patterned Aha incorporation)” value (HeLa cells [3]) was “localized near exposed regions”. The “extent of fluorescent labeling of fixed cells” value (HeLa cells [4]) was “low-level labeling similar to Met”, the “Aha incorporation as function of NPPOC-Aha concentration” value (HeLa cells [1]; NPPOC-Aha 0-250 μM, given exposure condition) was “increased with NPPOC-Aha concentration” and the “protein fluorescence” value (HeLa cells [1]; NPPOC-Aha 250 μM, UV-treated (365 nm, 10 mW cm^−2, 5 min), lysis 2 h after exposure) was “significant fluorescent enhancement”. For the same compound, the “protein fluorescence” value (HeLa cells [1]; NPPOC-Aha 250 μM, non-irradiated) was “lack of fluorescence”, the “dependence of protein labeling on mode of irradiation” value (HeLa cells [1]; NPPOC-Aha irradiated separately or during incubation with cells) was “does not depend on whether NPPOC-Aha is irradiated separately or during incubation with cells” and the “incorporation of irradiated NPPOC-Aha compared with Aha” value (HeLa cells [1]; each at 100 μM, NPPOC-Aha + light) was “slightly less incorporation than Aha alone”. For the same compound, the “metabolic labeling as function of light intensity” value (HeLa cells [1]; low NPPOC-Aha concentrations, 0-10 mW cm^−2) was “increased with light intensity”, the “Aha incorporation after pre-incubation, non-irradiated samples” value (HeLa cells [5]; 100 μM, 0-4 hr in media with HeLa cells, no light) was “did not show increased incorporation over time” and the “Aha incorporation after pre-incubation, irradiated samples” value (HeLa cells [5]; 100 μM, 0-4 hr in media with HeLa cells, then light) was “extent decreased over time”. For the same compound, the “working time (stability in media with cells)” value (HeLa cells [5]; NPPOC-Aha 100 μM incubated with HeLa cells 0-4 hr before light (10 mW cm^−2, 5 min), labeling 2 hr) was over 4 h.

For `CSCC[C@H](N)C(=O)O` [Met, L-methionine, reference compound], the “protein fluorescence” value (HeLa cells [1]; [6]) was “lack of fluorescence”.
